# Source: US12037354B2, “Cyclic pantetheine derivatives and uses thereof” (VectivBio Comet AG, priority 2018, dated 2024)
# Read-outs that look alike come from different tables or passages of the source.
# Tested on: HepG2 cells
# Test: Glucose uptake Glo Assay, Example 821
# Type: cell-based
# Details: for activation at 10 µM / activation at 50 µM: Homo sapiens, 20 min, read-out: % increase in Glucose Uptake
# Procedure: The effect of compounds from the present disclosure on glucose uptake was determined in HepG2 cells (ATCC, HB-8065) using the glucose uptake Glo Assay Kit (Promega, 11343 according to manufacturer instructions. HepG2 cells were cultured in complete DMEM-glucose media (Gibco) supplemented with 10% FBS (37° C. incubator with 5% CO2) and seeded in 96-well plates at 30,000 cells/well. After removing the complete media, 100 μL/well of serum-free, high-glucose DMEM media were added to the wells and incubated overnight (37° C. incubator with 5% CO2). Media was then replaced with 100 μl/well DPBS containing 0.6°/o BSA and starved for 1 hour. Next, DPBS was removed and 45 μl/well of insulin (100 nM) or compounds (10 μM-50 μM) were added to the wells and incubated for 10 minutes (37° C. incubator with 5% CO2). Insulin and compounds were prepared in DPBS with 0.6% BSA with a final DMSO concentration of 0.1%. Next, 5 μl of 2DG (10 mM) in DPBS were added per well and allowed to incubate for 20 minutes followed by addition of 25 μl stop buffer. 37.5 μl of the mixture were then transferred to a new plate and 12.5 μl of Neutralization buffer added to the wells. After, 50 μl of 2DG6P detection Reagent were added and incubated for 0.5-1 hour at room temperature. Luminescence was measured with 0.3-1 second integration on a luminometer.
structure (smiles),measurement,setting,value
"COC(=O)/C=C/C(=O)SCCNC(=O)CCNC(=O)[C@@H]1OC(C)(C)OCC1(C)C [Compound 858, methyl (2E)-4-oxo-4-[[2-(3-[[(4R)-2,2,5,5-tetramethyl-1,3-dioxan-4-yl]formamido]propanamido)ethyl]sulfanyl]but-2-enoate]",% increase in Glucose Uptake,10 uM (Example 973),≥30%
same,activation at 10 µM,10 uM,≥ 30%
CC(=O)NCCCC(=O)SCCNC(=O)CCNC(=O)[C@@H]1OC(C)(C)OCC1(C)C [Compound 853],% increase in Glucose Uptake,10 uM (Example 973),≥30%
same,activation at 10 µM,10 uM,≥ 30%
C/C=C/C(=O)CC(=O)SCCNC(=O)CCNC(=O)[C@@H]1OP(=O)(OCc2ccccc2)OCC1(C)C (some centres unmarked) [Compound 867],activation at 10 µM,10 uM,≥ 20%
same,% increase in Glucose Uptake,concentration tested 10 uM,≥20%
COP1(=O)OCC(C)(C)[C@H](C(=O)NCCC(=O)NCCSC(=O)CC(=O)/C=C/C(=O)O)O1 (some centres unmarked) [Compound 117],activation at 10 µM,10 uM (Example 970),≥ 30%
CC1(C)OCC(C)(C)[C@H](C(=O)NCCC(=O)NCCSSCCNC(=O)CCNC(=O)[C@@H]2OC(C)(C)OCC2(C)C)O1 [Compound 870],activation at 10 µM,10 uM,≥ 30%
same,% increase in Glucose Uptake,concentration tested 10 uM,≥30%
COC(=O)C(=O)SCCNC(=O)CCNC(=O)[C@@H]1OC(C)(C)OCC1(C)C [Compound 856],% increase in Glucose Uptake,10 uM (Example 973),≥30%
same,activation at 10 µM,10 uM,≥ 30%
COC(=O)C(CC(=O)O)SCCNC(=O)CCNC(=O)[C@@H]1OP(=O)(OC)OCC1(C)C (some centres unmarked) [Compound 382],activation at 50 µM,50 uM (Example 970),≥ 30%
"CCC(=O)SCCNC(=O)CCNC(=O)[C@@H]1OC(C)(C)OCC1(C)C [Compound 861, N-[2-(propanoylsulfanyl)ethyl]-3-[[(4R)-2,2,5,5-tetramethyl-1,3-dioxan-4-yl]formamido]propanamide]",activation at 50 µM,50 uM,≥ 20%
same,% increase in Glucose Uptake,concentration tested 50 uM,≥20%
CCOC(=O)CCC(=O)CC(=O)CC(=O)SCCNC(=O)CCNC(=O)[C@@H]1OP(=O)(OC)OCC1(C)C (some centres unmarked) [Compound 211],activation at 50 µM,50 uM (Example 969),≥ 30%
C[C@@H](O)CC(=O)SCCNC(=O)CCNC(=O)[C@@H]1OP(=O)(OCc2ccccc2)OCC1(C)C (some centres unmarked) [Compound 864],activation at 50 µM,50 uM,≥ 20%
same,% increase in Glucose Uptake,concentration tested 50 uM,≥20%
C/C=C/C(=O)SCCNC(=O)CCNC(=O)[C@@H]1OP(=O)(N[C@@H](C)C(=O)O)OCC1(C)C (some centres unmarked) [Compound 145],activation at 10 µM,10 uM (Example 970),≥ 30%
COC(=O)[C@H](C)NP1(=O)OCC(C)(C)[C@H](C(=O)NCCC(=O)NCCSC(=O)CCC(=O)O)O1 (some centres unmarked) [Compound 63],activation at 50 µM,50 uM (Example 967),≥ 30%
COC(=O)CCC(=O)SCCNC(=O)CCNC(=O)[C@@H]1OP(=O)(OCc2ccccc2)OCC1(C)C (some centres unmarked) [Compound 863],activation at 50 µM,50 uM,≥ 10%
same,% increase in Glucose Uptake,concentration tested 50 uM,≥10%
C[C@@H](O)CC(=O)SCCNC(=O)CCNC(=O)[C@@H]1OC(=O)OCC1(C)C [Compound 485],activation at 50 µM,50 uM,≥ 10%
same,% increase in Glucose Uptake,concentration tested 50 uM,≥10%
CCOP1(=O)OCC(C)(C)[C@H](C(=O)NCCC(=O)NCCS)O1 (some centres unmarked) [Compound 865],activation at 10 µM,10 uM,≥ 20%
same,% increase in Glucose Uptake,concentration tested 10 uM,≥20%
CC1(C)OCC(C)(C)[C@H](C(=O)NCCC(=O)NCCSC(=O)C(=O)O)O1 [Compound 868],% increase in Glucose Uptake,10 uM (Example 973),≥30%
same,activation at 10 µM,10 uM,≥ 30%
CC1(C)COP(=O)(O)O[C@H]1C(=O)NCCC(=O)NCCS [Compound 869],activation at 10 µM,10 uM,≥ 10%
same,% increase in Glucose Uptake,concentration tested 10 uM,≥10%
COC(=O)CC(SCCNC(=O)CCNC(=O)[C@@H]1OP(=O)(N[C@@H](C)C(=O)OC)OCC1(C)C)C(=O)OC (some centres unmarked) [Compound 370],activation at 50 µM,50 uM (Example 969),≥ 30%
COC(=O)CC1(C)OCC(C)(C)[C@H](C(=O)NCCC(=O)NCCSC(=O)CCC(=O)O)O1 (some centres unmarked) [Compound 609],activation at 10 µM,10 uM,≥ 10%
same,% increase in Glucose Uptake,concentration tested 10 uM,≥10%
COC(=O)C(CC(=O)O)SCCNC(=O)CCNC(=O)[C@@H]1OC(=O)OCC1(C)C (some centres unmarked) [Compound 498],activation at 50 µM,50 uM (Example 971),≥ 10%
CC1(C)COP(=O)(O)O[C@H]1C(=O)NCCC(=O)NCCSC(=O)CC(=O)CCC(=O)O [Compound 3],activation at 10 µM,10 uM,≥ 10%
same,% increase in Glucose Uptake,concentration tested 10 uM,≥10%
CC(=O)SCCNC(=O)CCNC(=O)[C@@H]1OP(=O)(O)OCC1(C)C [Compound 2],activation at 10 µM,10 uM (Example 970),≥ 10%
COC(=O)CC(SCCNC(=O)CCNC(=O)[C@@H]1OP(=O)(OCC[N+](C)(C)C)OCC1(C)C)C(=O)OC (some centres unmarked) [Compound 371],activation at 10 µM,10 uM (Example 969),≥ 30%
CC1(C)COP(=O)(OCc2ccccc2)O[C@H]1C(=O)NCCC(=O)NCCS (some centres unmarked) [Compound 862],activation at 10 µM,10 uM,≥ 20%
same,activation at 50 µM,50 uM,≥ 10%
same,% increase in Glucose Uptake,concentration tested 10 uM,≥20%
same,% increase in Glucose Uptake,concentration tested 50 uM,≥10%
COC(=O)[C@H](C)NP1(=O)OCC(C)(C)[C@H](C(=O)NCCC(=O)NCCSC(=O)CC(C)=O)O1 (some centres unmarked) [Compound 157],activation at 50 µM,50 uM (Example 971),≥ 20%
C[C@@H](O)CC(=O)SCCNC(=O)CCNC(=O)[C@@H]1OP(=O)(O)OCC1(C)C [Compound 39],activation at 50 µM,50 uM,≥ 10%
same,% increase in Glucose Uptake,concentration tested 50 uM,≥10%
COC(=O)CC(SCCNC(=O)CCNC(=O)[C@@H]1OC(=O)OCC1(C)C)C(=O)OCC[N+](C)(C)C (some centres unmarked) [Compound 503],activation at 50 µM,50 uM (Example 972),≥ 20%
CCOC(=O)CC(SCCNC(=O)CCNC(=O)[C@@H]1OP(=O)(OC)OCC1(C)C)C(=O)OCC[N+](C)(C)C (some centres unmarked) [Compound 410],activation at 50 µM,50 uM (Example 969),≥ 30%
"CCCCCCC(=O)SCCNC(=O)CCNC(=O)[C@@H]1OC(C)(C)OCC1(C)C [Compound 855, N-[2-(heptanoylsulfanyl)ethyl]-3-[[(4R)-2,2,5,5-tetramethyl-1,3-dioxan-4-yl]formamido]propanamide]",activation at 50 µM,50 uM,≥ 30%
same,% increase in Glucose Uptake,concentration tested 50 uM,≥30%
CCOP1(=O)OCC(C)(C)[C@H](C(=O)NCCC(=O)NCCSC(=O)CC(=O)CC(=O)CCC(=O)O)O1 (some centres unmarked) [Compound 183],activation at 10 µM,10 uM (Example 970),≥ 30%
COP1(=O)OCC(C)(C)[C@H](C(=O)NCCC(=O)NCCSC(CC(=O)OCC[N+](C)(C)C)C(=O)O)O1 (some centres unmarked) [Compound 397],activation at 10 µM,10 uM (Example 969),≥ 20%
CC(CC(=O)SCCNC(=O)CCNC(=O)[C@@H]1OP(=O)(O)OCC1(C)C)O[C@H](CC(=O)[O-])C[N+](C)(C)C (some centres unmarked) [Compound 47],activation at 50 µM,50 uM (Example 966),≥ 10%
CC1(C)COC(=O)O[C@H]1C(=O)NCCC(=O)NCCSC(=O)CC(=O)CCC(=O)OCC[N+](C)(C)C [Compound 460],activation at 50 µM,50 uM (Example 969),≥ 30%
COC(=O)CC1(C)OCC(C)(C)[C@H](C(=O)NCCC(=O)NCCS)O1 (some centres unmarked) [Compound 866],% increase in Glucose Uptake,10 uM (Example 973),≥30%
same,activation at 10 µM,10 uM,≥ 30%
COC(=O)[C@H](C)NP1(=O)OCC(C)(C)[C@H](C(=O)NCCC(=O)NCCSC(=O)CC(=O)CC(=O)CCC(=O)O)O1 (some centres unmarked) [Compound 185],activation at 50 µM,50 uM (Example 970),≥ 30%
CC1(C)COP(=O)(O)O[C@H]1C(=O)NCCC(=O)NCCSC(=O)CCC(=O)O [Compound 1],activation at 10 µM,10 uM (Example 968),≥ 30%
C/C=C/C(=O)SCCNC(=O)CCNC(=O)[C@@H]1OP(=O)(N[C@@H](C)C(=O)OC)OCC1(C)C (some centres unmarked) [Compound 144],activation at 50 µM,50 uM (Example 969),≥ 30%
COC(=O)CC(SCCNC(=O)CCNC(=O)[C@@H]1OP(=O)(O)OCC1(C)C)C(=O)OCC[N+](C)(C)C (some centres unmarked) [Compound 57],activation at 50 µM,50 uM (Example 971),≥ 20%
C/C=C/C(=O)SCCNC(=O)CCNC(=O)[C@@H]1OP(=O)(OC)OCC1(C)C (some centres unmarked) [Compound 141],activation at 50 µM,50 uM (Example 969),≥ 30%
COC(=O)C(CC(=O)OCC[N+](C)(C)C)SCCNC(=O)CCNC(=O)[C@@H]1OP(=O)(Oc2ccccc2)OCC1(C)C (some centres unmarked) [Compound 393],activation at 10 µM,10 uM (Example 970),≥ 30%
"CC(=O)CC(=O)SCCNC(=O)CCNC(=O)[C@@H]1OC(C)(C)OCC1(C)C [Compound 860, N-[2-[(3-oxobutanoyl)sulfanyl]ethyl]-3-[[(4R)-2,2,5,5-tetramethyl-1,3-dioxan-4-yl]formamido]propanamide]",activation at 50 µM,50 uM,≥ 10%
same,% increase in Glucose Uptake,concentration tested 50 uM,≥10%
"COC(=O)CCC(=O)SCCNC(=O)CCNC(=O)[C@@H]1OC(C)(C)OCC1(C)C [Compound 852, methyl 4-oxo-4-[[2-(3-[[(4R)-2,2,5,5-tetramethyl-1,3-dioxan-4-yl]formamido]propanamido)ethyl]sulfanyl]butanoate]",activation at 50 µM,50 uM,≥ 20%
same,% increase in Glucose Uptake,concentration tested 50 uM,≥20%
CCOC(=O)CCC(=O)CC(=O)CC(=O)SCCNC(=O)CCNC(=O)[C@@H]1OP(=O)(OCC[N+](C)(C)C)OCC1(C)C (some centres unmarked) [Compound 214],activation at 10 µM,10 uM (Example 972),≥ 20%
CCOC(=O)CCC(=O)CC(=O)CC(=O)SCCNC(=O)CCNC(=O)[C@@H]1OP(=O)(N[C@@H](C)C(=O)OC)OCC1(C)C (some centres unmarked) [Compound 213],activation at 50 µM,50 uM (Example 970),≥ 30%
CC1(C)COP(=O)(O)O[C@H]1C(=O)NCCC(=O)NCCSC(=O)/C=C/C(=O)O [Compound 20],activation at 50 µM,50 uM,≥ 30%
same,% increase in Glucose Uptake,concentration tested 50 uM,≥30%
